Experiments:
[1] = Lap shear testing using pig skin; conditions: 1/2" x 1" overlap, about 100 μl adhesive, cure 20~30 min, Instron pulling rate 5 mm/min, about 10 joints
Procedure: General Procedure for Lap Shear Testing Using Pig Skin
Fresh pig skin was harvested from the back of the pig within 5 hours post sacrifice. The hair was removed by trimming and shaving to expose a smooth skin surface. The fat attached to the inside skin surface was trimmed away. The skin was cut into 2″×1″ coupons and covered by saline moist paper towel before use.
The external surface of the skin was used as bonding surface to prepare the lap shear joint samples.
The coupons were patted dry prior to forming the lap shear joint. About 1 00 μl of adhesive was deposited to one coupon within ½″ from the nearer end and smoothed to cover a ½″×1″ area (FIG. 1). The other coupon was placed over the area of the coupon with applied adhesive to form an overlap of ½″×1″. A 1 lb weight was placed on top of the overlap area. The joint was allowed to cure for 20˜30 min and the strength of the joint was tested as described below.
The strength of the cured joint was tested using an Instron (Model 5544) with a pulling rate of 5 mm/min. The maximum load for the joint to fail was recorded.
Typically, about 10 joint samples were tested for each adhesive.

[2] = Bonding of two moist fingertips by monomer; conditions: very small amount of monomer placed between two moist fingertips
[3] = Glass transition temperature of polymer film; type: physicochemical; conditions: adhesive polymer formed from the monomer
Procedure: A 1″×1″ Prolene mesh (Ethicon, Inc.) was briefly rinsed with 0.5% wt NaHCO3 aqueous solution and patted dry. The mesh was placed on a freshly prepared Agar plate in a petri dish and about 100 mg of monomer adhesive was applied and spread evenly across the mesh. The monomer adhesive was allowed to cure completely overnight with the petri dish covered and sealed with parafilm. The fully cured polymer film formed over the mesh was removed and rinsed with deionized water to remove any Agar attached and patted dry with paper towel. The thickness of the polymer film was about 0.6 mm.

Structure (SMILES)	Load (maximum load for the lap shear joint to fail) [1]	Bonding of fingertips [2]	Glass Transition Temperature (Tg, ° C.) [3]
C=C(C#N)C(=O)OC(CCCC)C(=O)OCC (stereo not drawn) [Et-α-CPL-CA, 2-(2-Cyano-acryloyloxy)-hexanoic acid ethyl ester]	1.26 ± 0.29 Ib	–	–
C=C(C#N)C(=O)OC(C)C(=O)OCCCC (centres unmarked) [Bu-Lac-CA, 2-Cyano-acrylic acid 1-butoxycarbonyl-ethyl ester, reference compound]	4.96 ± 0.67 Ib	bonded the fingertips strongly within one minute	52 °C
C=C(C#N)C(=O)OC(CCC)CC(=O)OCC (stereo not drawn) [Et-β-CPL-CA, 3-(2-Cyano-acryloyloxy)-hexanoic acid ethyl ester]	4.49 ± 0.68 Ib	bonded the fingertips strongly within one minute	−11 °C
C=C(C#N)C(=O)OCCCCCC(=O)OCC [Et-ε-CPL-CA, 6-(2-Cyano-acryloyloxy)-hexanoic acid ethyl ester]	3.68 ± 0.64 Ib	–	–
C=C(C#N)C(=O)OC(C)CC(=O)OCC (stereo not drawn) [Et-β-HBT-CA, 3-(2-Cyano-acryloyloxy)-butyric acid ethyl ester]	4.09 ± 0.48 Ib	bonded the fingertips strongly within one minute	32 °C
